# Where a chain is given by its changes, count along the chain named. Active and inactive are the calls of the source. The calls are words filed in the database; no cut-off is given here.
# Columns and labels:
# Mus musculus [1] = species: Mus musculus; test: Compound was tested for the ability to stimulate diacylglycerol formation antagonized by atropine.; type: functional, organism-based
# Mus musculus [2] = test: Compound was evaluated for toxicity up to 300 mg/kg; NT - No Toxicity; type: functional, organism-based; set-up: dose 300 mg/kg
# Mus musculus [3] = test: Percent inhibition of the number of pirenzepine-induced rotations in mice, on oral administration (3 mg/kg) 4 hr before the test; type: functional
# Mus musculus [4] = species: Mus musculus; test: Effective dose required to antagonize pirenzepine-induced deficit in passive avoidance learning.; type: functional
# [5] = target: T1, Muscarinic acetylcholine receptor M1 (Homo sapiens, UniProt P11229); test: Compound was tested for its affinity for muscarinic M1 receptor
# T1 sequence (P11229 whole entry): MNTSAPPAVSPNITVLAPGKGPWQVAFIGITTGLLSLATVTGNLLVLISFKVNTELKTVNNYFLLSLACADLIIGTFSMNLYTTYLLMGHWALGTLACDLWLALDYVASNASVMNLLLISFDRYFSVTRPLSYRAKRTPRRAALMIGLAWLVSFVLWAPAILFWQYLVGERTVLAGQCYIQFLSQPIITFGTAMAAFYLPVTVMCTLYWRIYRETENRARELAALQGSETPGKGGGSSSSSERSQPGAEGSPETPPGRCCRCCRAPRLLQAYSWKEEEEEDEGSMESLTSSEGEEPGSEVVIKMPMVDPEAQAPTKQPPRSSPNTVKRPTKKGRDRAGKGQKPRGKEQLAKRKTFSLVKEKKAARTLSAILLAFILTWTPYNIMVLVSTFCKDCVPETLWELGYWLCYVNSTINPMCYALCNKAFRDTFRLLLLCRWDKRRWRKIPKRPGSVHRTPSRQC
# Mus musculus [6] = species: Mus musculus; test: Effective dose required to antagonize scopolamine-induced deficit in passive avoidance learning.; type: functional
# Mus musculus [7] = test: Percent inhibition of the number of pirenzepine-induced rotations in mice, on oral administration (0.3 mg/kg) 4 hr before the test; type: functional
# Rattus norvegicus [8] = test: Effective dose required to potentiate haloperidol induced catalepsy in rats (p.o.); type: functional; settings: po
# [9] = target: T2, Muscarinic acetylcholine receptor M1 (Rattus norvegicus, UniProt P08482); test: Displacement of [3H]pirenzepine from cerebral Muscarinic acetylcholine receptor M1
# T2 sequence (P08482 whole entry): T1 sequence (P11229 whole entry) with A5V, T254S, P309S, R320K, A337G, I413V
# Rattus norvegicus [10] = species: Rattus norvegicus; test: Compound was tested for inhibitory concentration required for the K+ release of [3H]- GABA from rat striatal slices and reduced at 0.5 and 1 uM; type: functional
# Mus musculus [11] = species: Mus musculus; test: Effective dose required to antagonize rotations induced in mice by intrastriatal injection of pirenzepine.; type: functional
# Mus musculus [12] = test: Percent inhibition of the number of pirenzepine-induced rotations in mice, on orally administration (0.3 mg/kg) 4 hr before the test; type: functional
# [13] = (§1) Lethal dose in mice after oral administration; type: toxicity; settings: mouse, in vivo
# [14] = as §1; type: toxicity, organism-based; settings: mouse, in vivo
# Mus musculus [15] = test: Percent inhibition of the number of pirenzepine-induced rotations in mice, on oral administration (3 mg/kg) 4 hr before the test; Inactive; type: functional, organism-based
# Mus musculus [16] = test: Percent inhibition of the number of pirenzepine-induced rotations in mice, on oral administration(0.3 mg/kg) 4 hr before the test; Inactive; type: functional, organism-based
SMILES,IC50 [9] [nM],further results
CCCc1cc(NCC(C)(C)N(CC)CC)nnc1-c1ccccc1,110,IC50 (Mus musculus [1]): 50000 nM; Activity (Mus musculus [2]): inactive; Inhibition (Mus musculus [3]): 78%; ED50 (Mus musculus [4]): 0.027 mg/kg; Ki [5]: 112 nM; ED50 (Mus musculus [6]): 0.25 mg/kg; Inhibition (Mus musculus [7]): 51%; ED50 (Rattus norvegicus [8]): 0.1 mg/kg; IC50 (Rattus norvegicus [10]): 10000 nM; ED50 (Mus musculus [11]): 0.12 mg/kg
CCCc1nnc(NCC(C)(C)N(CC)CC)cc1-c1ccccc1,50,–
Cc1cc(NCCN(C)C)ccc1-c1ccccc1,140,–
CCCc1cc(NCCN2CCOCC2)nnc1-c1ccccc1,1600,–
Cc1cc(-c2ccccc2)nnc1NCCN1CCC(O)CC1,> 100000,–
CCN(CC)C(C)(C)CNc1cc(C2CC2)c(-c2ccccc2)nn1,400,–
"CCCc1cc(NC2CCCN2CC)nnc1-c1ccccc1 (single isomer, unassigned; (+))",60,–
Cc1cc(-c2ccc3ccccc3c2)nnc1NCCN1CCOCC1,7500,–
CCN(CC)C(C)(C)CNc1cc(-c2ccccc2)c(C)nn1,180,Inhibition (Mus musculus [3]): 85%; Inhibition (Mus musculus [7]): 65%
CCN(CC)CCNc1nnc(-c2ccccc2)cc1C,240,–
Cc1cc(-c2ccccc2)nnc1NCCN(C)C,230,–
O=Cc1cc(-c2ccccc2)nnc1NCCN1CCOCC1,> 100000,–
CCN(CC)C(C)(C)CNc1cc(-c2ccccc2)c(-c2ccccc2)nn1,40,Inhibition (Mus musculus [3]): 113%; Inhibition (Mus musculus [12]): 87%; LD50 [13]: 250 mg/kg
CCN(CC)C(C)(C)CNc1cc(-c2ccccc2)c(CC(C)C)nn1,20,LD50 [14]: 250 mg/kg
CCN1CCCC1CNc1nnc(-c2ccccc2)cc1C (configuration not stated),800,–
c1ccc(Cc2cc(-c3ccccc3)nnc2NCCN2CCOCC2)cc1,4600,–
Cc1cc(C2CCCCC2)nnc1NCCN1CCOCC1,6000,–
N#Cc1cc(-c2ccccc2)nnc1NCCN1CCOCC1 [BAZINAPRINE],60000,–
CCN(CC)C(C)(C)CNc1cc(C)c(-c2ccccc2O)nn1,240,–
c1ccc(-c2cc(NCCN3CCOCC3)nnc2-c2ccccc2)cc1,170,–

SMILES,IC50 [9] [nM],further results
CCN(CC)C(C)(C)CNc1cc(C)c(-c2ccccc2)nn1,2300,–
c1ccc2c(c1)CCCc1cc(NCCCN3CCOCC3)nnc1-2,2000,–
"CCCc1cc(NC2CCCN2CC)nnc1-c1ccccc1 (single isomer, unassigned; (-))",10,–
Cc1c(NCCN2CCOCC2)nnc(-c2ccccc2)c1C,700,–
Cc1cc(-c2ccccc2)nnc1NCCN1CCOCC1=O,> 100000,–
CCN1CCCC1CNc1cc(C)c(-c2ccccc2O)nn1 (configuration not stated),8,–
Cc1cc(NCCCN(C)C)ccc1-c1ccccc1,500,–
c1ccc(-c2ccc(NCCN3CCOCC3)nn2)cc1,12000,–
c1ccc2c(c1)CCCc1cc(NCCN3CCOCC3)nnc1-2,370,–
CCc1cc(-c2ccccc2)nnc1NCCN1CCOCC1,1600,–
c1ccc(-c2cc(Cc3ccc4ccccc4c3)c(NCCN3CCOCC3)nn2)cc1,16000,–
O=C(O)c1cc(-c2ccccc2)nnc1NCCN1CCOCC1,> 100000,–
c1ccc(-c2cc(-c3ccccc3)c(NCCN3CCOCC3)nn2)cc1,600,–
CCN1CCCC1CNc1cc(C)c(-c2ccccc2)nn1 (configuration not stated),260,–
CCCc1cc(NC2CCCN2CC)nnc1-c1ccccc1 (racemic),30,–
Cc1cc(-c2ccccc2)nnc1NCCN1CCOCC1 [MINAPRINE],17000,–
CCCc1cc(NCC(C)(C)N(CC)CC)nnc1-c1ccccc1O,130,–
CCN1CCCC1CNc1cc(-c2ccccc2)c(C)nn1 (configuration not stated),20,inhibition (Mus musculus [15]): inactive; inhibition (Mus musculus [16]): inactive
Cc1cc(-c2cccs2)nnc1NCCN1CCOCC1,4000,–
